Measurements as given in patent US6914045B2, “Glycopeptide antibiotics” (Wyeth Holdings Corporation, priority 2001, dated 2005).

Assays:
Experiment in all cases: in vitro antibacterial evaluation, MIC by broth dilution
Format in all cases: cell-based
Enterococcus sp. = tested on: Enterococcus sp.
Description: (§1) Methods for in vitro Antibacterial Evaluation (Table 1)
(§2) The minimum inhibitory concentration (MIC), the lowest concentration of the antibiotic which inhibits growth of the test organism, is determined by the broth dilution method using Muller-Hinton II […] (Baltimore Biological Laboratories) following the recommendations of the National Committee for Clinical Laboratory Standards [Methods for dilution antimicrobial susceptibility tests for bacteria that grow aerobically, approved standard M7-A2, National Committee for Clinical Laboratory Standards, Villanova, Pa.].
(§3) An inoculum level of 5×10^5 CFU/mL, and a range of antibiotic concentrations (64-0.06 μg/mL) is used. […] The test organisms include a spectrum of Gram-positive bacteria comprised of Staphylococcus sp., Streptococcus sp. and Enterococcus sp. These organisms include recent clinical isolates that are resistant to methicillin, penicillin and/or vancomycin.

Streptococcus sp. = tested on: Streptococcus sp.
Description: as §1, §2, §3

Staphylococcus sp. = tested on: Staphylococcus sp.
Description: as §1, §2, §3

Escherichia coli = tested on: Escherichia coli
Description: as §2, §3

Cyclo[3-[[2-(2,3,4,6-tetra-O-benzoylhexopyranosyl)amino]-1,3-benzoxazol-5-yl]alanyl-3-(2-iminoimidazolidin-4-yl)seryl-3-(3-hexopyranosyl-2-iminoimidazolidin 4-yl)seryl-serylglycyl-β-methylphenylalanyl] [Example 44]
MIC Enterococcus avium (GC 4558) (Enterococcus sp.): 4 µg/mL | MIC Enterococcus faecalis (ATCC 29212) (Enterococcus sp.): 16 µg/mL | MIC Enterococcus faecalis (GC 2242) (Enterococcus sp.): 16 µg/mL | MIC Enterococcus faecalis (GC 2691) (Enterococcus sp.): 16 µg/mL | MIC Enterococcus faecalis (GC 3059) (Enterococcus sp.): 32 µg/mL | MIC Enterococcus faecalis (GC 4552) (Enterococcus sp.): 16 µg/mL | MIC Enterococcus faecalis (GC 4553) (Enterococcus sp.): 8 µg/mL | MIC Enterococcus faecalis (GC 4554) (Enterococcus sp.): 32 µg/mL | MIC Enterococcus faecalis (GC 6189) (Enterococcus sp.): 16 µg/mL | MIC Enterococcus faecium (GC 2243) (Enterococcus sp.): 8 µg/mL | MIC Enterococcus faecium (GC 4556) (Enterococcus sp.): 32 µg/mL | MIC Enterococcus faecium (GC 4557) (Enterococcus sp.): 8 µg/mL | MIC Streptococcus agalactiae (GC 4564) (Streptococcus sp.): 16 µg/mL | MIC Streptococcus pneumoniae (ATCC 6301) (Streptococcus sp.): 8 µg/mL | MIC Streptococcus pneumoniae (GC 1894) (Streptococcus sp.): 16 µg/mL | MIC Streptococcus pneumoniae (GC 4565) (Streptococcus sp.): 32 µg/mL | MIC Streptococcus pyogenes (GC 4563) (Streptococcus sp.): 4 µg/mL | MIC Coagulase Negative Staphylococcus (GC 4547) (Staphylococcus sp.): 64 µg/mL | MIC Coagulase Negative Staphylococcus (GC 4548) (Staphylococcus sp.): 8 µg/mL | MIC Coagulase Negative Staphylococcus (GC 4549) (Staphylococcus sp.): 2 µg/mL | MIC Coagulase Negative Staphylococcus (GC 4551) (Staphylococcus sp.): 16 µg/mL | MIC Coagulase Negative Staphylococcus (GC 6257) (Staphylococcus sp.): 8 µg/mL | MIC Staphylococcus aureus (ATCC 29213) (Staphylococcus sp.): 64 µg/mL | MIC Staphylococcus aureus (GC 1131) (Staphylococcus sp.): 64 µg/mL | MIC Staphylococcus aureus (GC 3051) (Staphylococcus sp.): 64 µg/mL | MIC Staphylococcus aureus (GC 3053) (Staphylococcus sp.): 32 µg/mL | MIC Staphylococcus aureus (GC 4541) (Staphylococcus sp.): 64 µg/mL | MIC Staphylococcus aureus (GC 4542) (Staphylococcus sp.): 64 µg/mL | MIC Staphylococcus aureus (GC 4544) (Staphylococcus sp.): 16 µg/mL | MIC Staphylococcus aureus (GC 4545) (Staphylococcus sp.): 16 µg/mL | MIC Staphylococcus aureus-SMITH (GC 4543) (Staphylococcus sp.): 32 µg/mL | MIC Staphylococcus haemolyticus (GC 4546) (Staphylococcus sp.): 64 µg/mL | MIC Escherichia coli (ATCC 25922) (Escherichia coli): >64 µg/mL | MIC Escherichia coli (GC 4559) (Escherichia coli): >64 µg/mL | MIC Escherichia coli (GC 4560) (Escherichia coli): 64 µg/mL
